From patent publication US10494332B2, “Protein tyrosine phosphatases or SHP2 inhibitors and uses thereof” (Indiana University Research and Technology Corporation, priority 2015, dated 2019)
Several values for one entry are separate records, joined by “and”; a condition that tells them apart may be missing. Identical values can stand only once. Like-named read-outs stand apart in the source and are kept apart here.

Tests used:
mPTPA = mPTPA (Mycobacterium tuberculosis, UniProt P9WIA1); assay: biochemical
Laforin = molecular target: T1, Laforin (Homo sapiens, UniProt O95278); assay: PTP inhibition assay (pNPP); format: biochemical; conditions: for IC50: pNPP at Km, pH 7.0, 25° C.
T1 sequence (O95278 1-331): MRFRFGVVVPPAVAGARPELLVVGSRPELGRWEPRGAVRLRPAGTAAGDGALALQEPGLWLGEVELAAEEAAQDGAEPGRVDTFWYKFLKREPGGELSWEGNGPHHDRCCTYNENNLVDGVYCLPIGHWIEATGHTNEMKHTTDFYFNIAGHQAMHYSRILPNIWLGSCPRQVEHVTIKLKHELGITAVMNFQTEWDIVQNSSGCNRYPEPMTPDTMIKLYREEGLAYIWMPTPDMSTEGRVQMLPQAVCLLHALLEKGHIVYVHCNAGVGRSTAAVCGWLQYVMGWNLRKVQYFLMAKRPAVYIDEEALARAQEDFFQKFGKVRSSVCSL

STEP = molecular target: T2, STEP (Homo sapiens, UniProt P54829); assay: PTP inhibition assay (pNPP); format: biochemical; conditions: pNPP at Km, pH 7.0, 25° C.
T2 sequence (P54829 1-565): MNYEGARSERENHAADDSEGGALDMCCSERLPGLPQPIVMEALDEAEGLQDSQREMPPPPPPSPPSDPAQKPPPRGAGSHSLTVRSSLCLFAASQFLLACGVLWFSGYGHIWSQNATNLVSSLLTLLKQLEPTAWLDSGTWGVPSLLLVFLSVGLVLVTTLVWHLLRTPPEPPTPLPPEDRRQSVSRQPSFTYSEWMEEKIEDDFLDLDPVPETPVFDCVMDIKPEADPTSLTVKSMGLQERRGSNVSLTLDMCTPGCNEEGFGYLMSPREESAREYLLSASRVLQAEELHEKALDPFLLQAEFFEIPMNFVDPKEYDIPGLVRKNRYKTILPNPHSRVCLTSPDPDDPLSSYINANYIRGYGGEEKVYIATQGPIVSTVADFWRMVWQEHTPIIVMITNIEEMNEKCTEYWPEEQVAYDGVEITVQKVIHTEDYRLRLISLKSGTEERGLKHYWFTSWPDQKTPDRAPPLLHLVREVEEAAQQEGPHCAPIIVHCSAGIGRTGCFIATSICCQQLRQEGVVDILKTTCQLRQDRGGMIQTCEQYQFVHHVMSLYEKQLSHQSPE

SHP2 = molecular target: T3, SHP2 (Homo sapiens, UniProt Q06124); assay: SHP2 phosphatase inhibition assay (pNPP); format: biochemical; conditions: pNPP at Km, pH 7.0, 25° C.; read-out: IC50 SHP2
T3 sequence (Q06124 224-528): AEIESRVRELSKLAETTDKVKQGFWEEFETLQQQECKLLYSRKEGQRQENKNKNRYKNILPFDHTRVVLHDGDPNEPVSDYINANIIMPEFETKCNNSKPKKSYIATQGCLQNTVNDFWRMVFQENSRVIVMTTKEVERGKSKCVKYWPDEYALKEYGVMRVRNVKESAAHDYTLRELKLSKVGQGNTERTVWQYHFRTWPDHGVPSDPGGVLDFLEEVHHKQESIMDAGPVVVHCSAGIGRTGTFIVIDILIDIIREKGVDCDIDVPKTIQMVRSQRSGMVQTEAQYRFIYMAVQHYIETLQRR

VHR = VHR (Homo sapiens, UniProt P51452); assay: PTP inhibition assay (pNPP); format: biochemical; conditions: pNPP at Km, pH 7.0, 25° C.
MKP3 = molecular target: T4, MKP3 (Homo sapiens, UniProt Q16828); assay: PTP inhibition assay (pNPP); format: biochemical
T4 sequence (Q16828 1-381): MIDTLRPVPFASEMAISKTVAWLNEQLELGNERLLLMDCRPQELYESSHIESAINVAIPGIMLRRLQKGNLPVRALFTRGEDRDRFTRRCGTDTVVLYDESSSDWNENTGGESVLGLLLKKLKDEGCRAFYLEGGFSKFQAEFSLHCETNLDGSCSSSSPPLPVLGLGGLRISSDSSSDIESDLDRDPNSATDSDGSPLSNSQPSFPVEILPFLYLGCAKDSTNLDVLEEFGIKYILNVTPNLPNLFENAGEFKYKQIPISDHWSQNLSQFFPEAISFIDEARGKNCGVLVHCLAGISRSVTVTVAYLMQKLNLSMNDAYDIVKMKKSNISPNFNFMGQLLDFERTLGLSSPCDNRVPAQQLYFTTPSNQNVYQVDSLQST

LMWPTP = molecular target: T5, LMWPTP (Homo sapiens, UniProt P24666); assay: PTP inhibition assay (pNPP); format: biochemical
T5 sequence (P24666 1-158): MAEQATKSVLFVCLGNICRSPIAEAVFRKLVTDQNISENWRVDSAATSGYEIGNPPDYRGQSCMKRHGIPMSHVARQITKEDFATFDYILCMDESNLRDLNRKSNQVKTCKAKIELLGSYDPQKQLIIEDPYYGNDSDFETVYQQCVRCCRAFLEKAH

Sequence of mPTPA (P9WIA1 whole entry): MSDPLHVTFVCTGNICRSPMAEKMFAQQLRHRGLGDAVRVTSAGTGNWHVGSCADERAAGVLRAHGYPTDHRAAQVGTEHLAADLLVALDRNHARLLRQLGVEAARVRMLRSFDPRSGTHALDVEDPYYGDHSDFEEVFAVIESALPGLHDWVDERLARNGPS
Sequence of VHR (P51452 whole entry): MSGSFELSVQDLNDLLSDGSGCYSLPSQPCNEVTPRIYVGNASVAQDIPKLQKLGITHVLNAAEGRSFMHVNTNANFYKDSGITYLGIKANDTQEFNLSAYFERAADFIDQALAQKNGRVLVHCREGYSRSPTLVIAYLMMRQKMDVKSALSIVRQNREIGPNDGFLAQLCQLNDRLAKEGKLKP

Row | SMILES | IC50 (mPTPA; IC50 mPTPA) | IC50 (Laforin; read-out: IC50 Laforin) | IC50 (STEP; read-out: IC50 STEP) | IC50 (SHP2) | IC50 (VHR) | IC50 (MKP3) | IC50 (LMWPTP; pNPP at Km, pH 7.0, 25° C.) | Ki (mPTPA) | IC50 (LMWPTP; pH 7) | IC50 (STEP; IC50 STEP) | Inhibition of Laforin at 100 μM (Laforin; 100 μM) | Mode of mPTPA inhibition (mPTPA) | IC50 (mPTPA; Biochemical potency against target (Ic50, nM) mPTPA) | IC50 (Laforin; IC50 Laforin)
1 | O=C(CS(=O)(=O)O)Nc1ccc2nc(C(F)(F)F)[nH]c2c1 | 650 nM | > 100 µM | > 100 µM | > 100 µM | > 100 µM | > 100 µM | 1.86 µM |  |  |  |  |  |  | 
2 | O=C(C(c1ccccc1)S(=O)(=O)O)N1CCC(c2ccc(Cl)c(Cl)c2)CC1 (centres unmarked) [Compound L319N47] | 11300 nM | 61 µM | > 200 µM | 76 µM | 99 µM | > 200 µM | 115 µM |  |  |  |  |  |  | 
3 | O=C(C(c1ccccc1)S(=O)(=O)O)N1CCC(Cc2ccccc2)CC1 (centres unmarked) [Compound L319N46] | > 200000 nM | > 200 µM | > 200 µM | > 200 µM | > 200 µM | > 200 µM | > 200 µM |  |  |  |  |  |  | 
4 | O=C(CS(=O)(=O)O)Nc1cnc2ccccc2c1 | 3000 nM | > 100 µM | > 100 µM | > 100 µM | > 100 µM | > 100 µM | 12 µM |  |  |  |  |  |  | 
5 | O=C(Nc1ccc(N2CCOCC2)cc1)C(c1ccccc1)S(=O)(=O)O (centres unmarked) [Compound L319M68] | 250 nM | 7.47 µM and 7.5 µM | > 200 µM | > 200 µM | > 200 µM | > 200 µM | 20 µM | 0.13 µM | 8.1 µM |  |  |  |  | 
6 | O=C(C(c1ccccc1)S(=O)(=O)O)N1CCCC2CCCCC21 (centres unmarked) [Compound L319N53] | > 200000 nM | > 200 µM | > 200 µM | > 200 µM | > 200 µM | > 200 µM | > 200 µM |  |  |  |  |  |  | 
7 | Cc1c(Br)cc(NC(=O)C(c2ccccc2)S(=O)(=O)O)cc1Br (centres unmarked) [Compound L319M34] | 196 nM |  |  | > 100 µM |  |  | 4.5 µM |  | 5.3 µM | > 200 µM |  |  |  | 
8 | O=C(Nc1cccc(OCc2ccccc2)c1)C(=O)Nc1ccccc1NC(=O)C(c1ccccc1)S(=O)(=O)O (centres unmarked) [Compound L319-21-M52] |  | 0.15 µM | > 50 µM | > 50 µM | > 50 µM |  | > 50 µM |  |  |  |  |  |  | 
9 | O=C(Nc1nc2ccccc2s1)C(c1ccccc1)S(=O)(=O)O (centres unmarked) [Compound L319N15] | 194 nM | 2.1 µM | > 200 µM | > 200 µM and > 100 µM and 160 µM | > 200 µM | > 200 µM | 7.33 µM and 8.6 µM |  | 7.1 µM |  |  |  |  | 
10 | O=C(CS(=O)(=O)O)Nc1nc2ccc([N+](=O)[O-])cc2s1 [Compound L335N15-07] |  | > 100 µM | > 100 µM | > 100 µM | > 100 µM | > 100 µM | 0.3 µM |  |  |  | no detectable inhibition |  |  | 
11 | O=C(Nc1cnc2ccccc2c1)C(c1ccccc1)S(=O)(=O)O (centres unmarked) [Compound L319M88] | 143 nM | 8.51 µM and 8.5 µM | > 200 µM | > 200 µM | > 200 µM | > 200 µM | 6.1 µM |  | 7.3 µM |  |  |  |  | 
12 | Cc1c(Br)cc(NC(=O)CS(=O)(=O)O)cc1Br | 160 nM |  |  | > 100 µM | > 100 µM |  | 4.2 µM | 0.056 ± 0.002 µM |  | > 100 µM |  | reversible and competitive inhibitor | 160 nM | > 100 µM
13 | O=C(CS(=O)(=O)O)Nc1nc2ccccc2s1 [Compound L335N15] | 263 nM | > 100 µM | > 100 µM | > 100 µM | > 100 µM | > 100 µM | 2.1 µM |  |  |  |  |  |  | 
14 | O=C(NCc1ccc(NC(=O)C(c2ccccc2)S(=O)(=O)O)cc1)c1ccccc1-c1ccc(C(F)(F)F)cc1 (centres unmarked) [Compound L319-05-A64] |  | 0.8 µM | > 100 µM | 69 µM |  |  | 29 µM |  |  |  |  |  |  | 
15 | O=C(Nc1ccc(OCc2ccccc2)c(Cl)c1)C(c1ccccc1)S(=O)(=O)O (centres unmarked) [Compound L319M50] |  | 2.06 µM | > 200 µM | > 200 µM | > 200 µM |  |  |  | 12.1 µM |  |  |  |  | 
16 | O=C(Nc1cccc(OCc2ccccc2)c1)C(c1ccccc1)S(=O)(=O)O (centres unmarked) [Compound L319M52] | 560 nM | 5.08 µM | > 200 µM | > 200 µM | > 200 µM | > 200 µM | 72.3 µM |  |  |  |  |  |  | 
17 | O=C(Nc1ccc(-c2ccccc2)cc1)C(c1ccccc1)S(=O)(=O)O (centres unmarked) [Compound L319N08] |  |  |  | > 100 µM | > 200 µM |  | 28.9 µM |  |  | > 100 µM |  |  |  | 
18 | O=C(NCCNC(=O)C(c1ccccc1)S(=O)(=O)O)c1cccc(C(=O)c2ccccc2)c1 (centres unmarked) [Compound L319-02-A60] |  | 9 µM | > 200 µM | > 200 µM | > 200 µM |  | > 200 µM |  |  |  |  |  |  | 
19 | CCCCc1ccc(NC(=O)C(=O)Nc2ccccc2NC(=O)C(c2ccccc2)S(=O)(=O)O)cc1 (centres unmarked) [Compound L319-21-M06] |  | 0.14 µM | > 50 µM | > 50 µM | > 50 µM |  | > 50 µM |  |  |  |  |  |  | 
20 | O=C(Nc1ccc2nc(C(F)(F)F)[nH]c2c1)C(c1ccccc1)S(=O)(=O)O (centres unmarked) [Compound L319M54] | 265 nM and 270 nM | 4.25 µM | > 200 µM | > 200 µM | > 200 µM | > 200 µM | 7.96 µM and 5 µM |  | 5.6 µM |  |  |  |  | 
